The supplement of paper PMC10307832

Legend:
Assay in all cases: relative viability (nuclei count vs DMSO), 5 days (fraction); higher = more cells survive
[1] = compound: CC1=C(C(=O)N2C=CSC2=N1)CCN3CCC(=C(C4=CC=CC=C4)C5=CC=C(C=C5)F)CC3
Summary of the method: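 Only plates meeting two conditions passed: control CV below 25% and at least one doubling. Lung cancer cell lines, kept overnight at 37 °C in 1536-well plates, were pinned with five library-drug doses (not always all listed) √10 apart on vehicle-anchored plates and grown 5 days without medium change. A one-step fix, permeabilisation and Hoechst stain preceded 4× imaging and MetaXpress nuclear counting. Viability equals treated-well nuclei divided by vehicle-well nuclei, as the median over plates.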

[2] = compound: CC1=C(C(=O)N2C=CSC2=N1)CCN3CCC(=C(C4=CC=CC=C4)C5=CC=C(C=C5)F)CC3 + Cc1cc(Nc2cc(N3CCN(C)CC3)nc(Sc3ccc(NC(=O)C4CC4)cc3)n2)n[nH]1 [Tozasertib] (partner 0.1 µM)
Summary of the method: (§1)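 Lung cancer cell lines in 1536-well plates were dosed by pin tool the day after seeding, either with one drug alone or with a fixed anchor-drug dose plus five library-drug doses (not always all listed) in √10 steps. After 5 days, cells were fixed and their nuclei stained in one step (final 0.05% Triton X-100, 1% formaldehyde, 1 ug/ml Hoechst), then counted on 4× images. Relative viability is the nuclei count in treated wells divided by that in vehicle wells. Values are medians of duplicate plates.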

[3] = compound: CC1=C(C(=O)N2C=CSC2=N1)CCN3CCC(=C(C4=CC=CC=C4)C5=CC=C(C=C5)F)CC3 + COc1cc2c(Oc3ccc(NC(=O)C4(C(=O)Nc5ccc(F)cc5)CC4)cc3F)ccnc2cc1OCCCN1CCOCC1 [Foretinib] (partner 0.25 µM)
Summary of the method: as §1

[4] = compound: CC1=C(C(=O)N2C=CSC2=N1)CCN3CCC(=C(C4=CC=CC=C4)C5=CC=C(C=C5)F)CC3 + NC(=O)Nc1cc(-c2cccc(F)c2)sc1C(=O)N[C@H]1CCCNC1 [AZD7762] (partner 0.2 µM)
Summary of the method: as §1

[5] = compound: CC1=C(C(=O)N2C=CSC2=N1)CCN3CCC(=C(C4=CC=CC=C4)C5=CC=C(C=C5)F)CC3 + CC(=O)Nc1cccc(-n2c(=O)n(C3CC3)c(=O)c3c(Nc4ccc(I)cc4F)n(C)c(=O)c(C)c32)c1 [Trametinib] (partner 0.02 µM)
Summary of the method: as §1

[6] = compound: CC1=C(C(=O)N2C=CSC2=N1)CCN3CCC(=C(C4=CC=CC=C4)C5=CC=C(C=C5)F)CC3 + Cc1nc(Nc2ncc(C(=O)Nc3c(C)cccc3Cl)s2)cc(N2CCN(CCO)CC2)n1 [Dasatinib] (partner 0.075 µM)
Summary of the method: as §1

[7] = compound: CC1=C(C(=O)N2C=CSC2=N1)CCN3CCC(=C(C4=CC=CC=C4)C5=CC=C(C=C5)F)CC3 + O=C(CCCCCCC(=O)Nc1ccccc1)NO [Vorinostat] (partner 1 µM)
Summary of the method: as §1

[8] = compound: CC1=C(C(=O)N2C=CSC2=N1)CCN3CCC(=C(C4=CC=CC=C4)C5=CC=C(C=C5)F)CC3 + CCNC(=O)c1noc(-c2cc(C(C)C)c(O)cc2O)c1-c1ccc(CN2CCOCC2)cc1 [Luminespib] (partner 0.01 µM)
Summary of the method: as §1

[9] = compound: CC1=C(C(=O)N2C=CSC2=N1)CCN3CCC(=C(C4=CC=CC=C4)C5=CC=C(C=C5)F)CC3 + Nc1nc2[nH]cc(CCc3ccc(C(=O)N[C@@H](CCC(=O)O)C(=O)O)cc3)c2c(=O)[nH]1 [Pemetrexed] (partner 0.2 µM)
Summary of the method: as §1

[10] = compound: CC1=C(C(=O)N2C=CSC2=N1)CCN3CCC(=C(C4=CC=CC=C4)C5=CC=C(C=C5)F)CC3 + COc1cccc2cc(-c3nc([C@H]4CC[C@H](C(=O)O)CC4)n4ncnc(N)c34)[nH]c12 [OSI-027] (partner 0.5 µM)
Summary of the method: as §1

[11] = compound: CC1=C(C(=O)N2C=CSC2=N1)CCN3CCC(=C(C4=CC=CC=C4)C5=CC=C(C=C5)F)CC3 + N=C(N)NC(=N)NCCc1ccccc1 [Phenformin] (partner 250 µM)
Summary of the method: as §1

[12] = compound: CC1=C(C(=O)N2C=CSC2=N1)CCN3CCC(=C(C4=CC=CC=C4)C5=CC=C(C=C5)F)CC3 + CC(=O)c1c(C)c2cnc(Nc3ccc(N4CCNCC4)cn3)nc2n(C2CCCC2)c1=O [Palbociclib] (partner 0.5 µM)
Summary of the method: as §1

[13] = compound: CC1=C(C(=O)N2C=CSC2=N1)CCN3CCC(=C(C4=CC=CC=C4)C5=CC=C(C=C5)F)CC3 + Nc1ncn([C@H]2C[C@H](O)[C@@H](CO)O2)c(=O)n1 [Decitabine] (partner 2 µM)
Summary of the method: as §1

[14] = compound: CC1=C(C(=O)N2C=CSC2=N1)CCN3CCC(=C(C4=CC=CC=C4)C5=CC=C(C=C5)F)CC3 + O=C(c1cc(Cc2n[nH]c(=O)c3ccccc23)ccc1F)N1CCN(C(=O)C2CC2)CC1 [Olaparib] (partner 8 µM)
Summary of the method: as §1

## SW 900
[1]; 0.08 µM
  relative viability: 0.89
[1]; 0.253 µM
  relative viability: 1.02
[1]; 0.8 µM
  relative viability: 0.883
[1]; 2.53 µM
  relative viability: 1.04
[1]; 8 µM
  relative viability: 0.595
[2]; first compound 0.08 µM
  relative viability: 0.539
[2]; first compound 0.253 µM
  relative viability: 0.636
[2]; first compound 0.8 µM
  relative viability: 0.606
[2]; first compound 2.53 µM
  relative viability: 0.602
[2]; first compound 8 µM
  relative viability: 0.351
[3]; first compound 0.08 µM
  relative viability: 0.833
[3]; first compound 0.253 µM
  relative viability: 0.935
[3]; first compound 0.8 µM
  relative viability: 0.951
[3]; first compound 2.53 µM
  relative viability: 0.988
[3]; first compound 8 µM
  relative viability: 0.566
[4]; first compound 0.08 µM
  relative viability: 0.517
[4]; first compound 0.253 µM
  relative viability: 0.666
[4]; first compound 0.8 µM
  relative viability: 0.656
[4]; first compound 2.53 µM
  relative viability: 0.737
[4]; first compound 8 µM
  relative viability: 0.367
[5]; first compound 0.08 µM
  relative viability: 0.821
[5]; first compound 0.253 µM
  relative viability: 1.18
[5]; first compound 0.8 µM
  relative viability: 0.855
[5]; first compound 2.53 µM
  relative viability: 0.614
[5]; first compound 8 µM
  relative viability: 0.497
[6]; first compound 0.08 µM
  relative viability: 0.399
[6]; first compound 0.253 µM
  relative viability: 0.634
[6]; first compound 0.8 µM
  relative viability: 0.634
[6]; first compound 2.53 µM
  relative viability: 0.584
[6]; first compound 8 µM
  relative viability: 0.41
[7]; first compound 0.08 µM
  relative viability: 0.438
[7]; first compound 0.253 µM
  relative viability: 0.751
[7]; first compound 0.8 µM
  relative viability: 0.478
[7]; first compound 2.53 µM
  relative viability: 0.603
[7]; first compound 8 µM
  relative viability: 0.241
[8]; first compound 0.08 µM
  relative viability: 0.181
[8]; first compound 0.253 µM
  relative viability: 0.182
[8]; first compound 0.8 µM
  relative viability: 0.188
[8]; first compound 2.53 µM
  relative viability: 0.188
[8]; first compound 8 µM
  relative viability: 0.174
[9]; first compound 0.08 µM
  relative viability: 0.436
[9]; first compound 0.253 µM
  relative viability: 0.532
[9]; first compound 0.8 µM
  relative viability: 0.484
[9]; first compound 2.53 µM
  relative viability: 0.5
[9]; first compound 8 µM
  relative viability: 0.281
[10]; first compound 0.08 µM
  relative viability: 0.452
[10]; first compound 0.253 µM
  relative viability: 0.543
[10]; first compound 0.8 µM
  relative viability: 0.582
[10]; first compound 2.53 µM
  relative viability: 0.719
[10]; first compound 8 µM
  relative viability: 0.276
[11]; first compound 0.08 µM
  relative viability: 0.474
[11]; first compound 0.253 µM
  relative viability: 0.68
[11]; first compound 0.8 µM
  relative viability: 0.521
[11]; first compound 2.53 µM
  relative viability: 0.568
[11]; first compound 8 µM
  relative viability: 0.516
[12]; first compound 0.08 µM
  relative viability: 0.524
[12]; first compound 0.253 µM
  relative viability: 0.514
[12]; first compound 0.8 µM
  relative viability: 0.543
[12]; first compound 2.53 µM
  relative viability: 0.58
[12]; first compound 8 µM
  relative viability: 0.526
[13]; first compound 0.08 µM
  relative viability: 0.477
[13]; first compound 0.253 µM
  relative viability: 0.437
[13]; first compound 0.8 µM
  relative viability: 0.407
[13]; first compound 2.53 µM
  relative viability: 0.45
[13]; first compound 8 µM
  relative viability: 0.496
[14]; first compound 0.08 µM
  relative viability: 0.896
[14]; first compound 0.253 µM
  relative viability: 0.878
[14]; first compound 0.8 µM
  relative viability: 0.841
[14]; first compound 2.53 µM
  relative viability: 0.848
[14]; first compound 8 µM
  relative viability: 0.706
